Measured values as given in PubChem BioAssay (NCI).
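Step 1: Grow cells in 96-well plates. Step 2: Expose to compound for 48 hours at 5 concentrations. Step 3: Interpolate endpoints linearly; if unreached, use highest concentration. The concentration for 50% growth inhibition is given as GI50. TGI: concentration producing complete growth inhibition.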

Tests used:
Test in all cases: growth of human tumour cells (NCI), 48 h
786-0 renal = tested on: 786-0 renal
A498 renal = tested on: A498 renal
A549 NSCLC = tested on: A549 NSCLC
ACHN renal = tested on: ACHN renal
BT-549 breast = tested on: BT-549 breast
CAKI-1 renal = tested on: CAKI-1 renal
CCRF-CEM leukemia = tested on: CCRF-CEM leukemia
COLO 205 colon = tested on: COLO 205 colon
DU-145 prostate = tested on: DU-145 prostate
HCC-2998 colon = tested on: HCC-2998 colon
HCT-116 colon = tested on: HCT-116 colon
HCT-15 colon = tested on: HCT-15 colon
HL-60(TB) leukemia = tested on: HL-60(TB) leukemia
HOP-62 NSCLC = tested on: HOP-62 NSCLC
HOP-92 NSCLC = tested on: HOP-92 NSCLC
HS 578T breast = tested on: HS 578T breast
HT29 colon = tested on: HT29 colon
IGROV1 ovarian = tested on: IGROV1 ovarian
K-562 leukemia = tested on: K-562 leukemia
KM12 colon = tested on: KM12 colon
LOX IMVI melanoma = tested on: LOX IMVI melanoma
M14 melanoma = tested on: M14 melanoma
MALME-3M melanoma = tested on: MALME-3M melanoma
MCF7 breast = tested on: MCF7 breast
MDA-MB-231 breast = tested on: MDA-MB-231 breast
MDA-MB-435 = tested on: MDA-MB-435
MOLT-4 leukemia = tested on: MOLT-4 leukemia
NCI-H226 lung = tested on: NCI-H226 lung
NCI-H23 lung = tested on: NCI-H23 lung

## CC(C)(C)c1[nH]nc2c1C(c1cc3ccccc3[nH]c1=O)Nc1cc(C(=O)Nc3ccc(Cl)cc3)ccc1N2 (configuration not stated)
786-0 renal
  GI50: 2.3 µM
  TGI: 5.54 µM
A498 renal
  GI50: 1.58 µM
  TGI: 3.8 µM
A549 NSCLC
  GI50: 4.66 µM
  TGI: > 100 µM
ACHN renal
  GI50: 4.71 µM
  TGI: > 64.7 µM
BT-549 breast
  GI50: 2.37 µM
  TGI: 6.65 µM
CAKI-1 renal
  GI50: > 100 µM
  TGI: > 100 µM
CCRF-CEM leukemia
  GI50: 2.16 µM
  TGI: > 21.6 µM
COLO 205 colon
  GI50: 2.88 µM
  TGI: 6.46 µM
DU-145 prostate
  GI50: 4.26 µM
  TGI: > 48.4 µM
HCC-2998 colon
  GI50: 2.64 µM
  TGI: 6.52 µM
HCT-116 colon
  GI50: 3.11 µM
  TGI: 10.7 µM
HCT-15 colon
  GI50: > 28.8 µM
  TGI: > 100 µM
HL-60(TB) leukemia
  GI50: 2.33 µM
  TGI: 5.64 µM
HOP-62 NSCLC
  GI50: 3.14 µM
  TGI: 10 µM
HOP-92 NSCLC
  GI50: 2.03 µM
  TGI: 6.05 µM
HS 578T breast
  GI50: 2.38 µM
  TGI: > 28.8 µM
HT29 colon
  GI50: 3.46 µM
  TGI: 13 µM
IGROV1 ovarian
  GI50: 3.28 µM
  TGI: 8.95 µM
K-562 leukemia
  GI50: 2.94 µM
  TGI: > 54.9 µM
KM12 colon
  GI50: 3.33 µM
  TGI: 16.2 µM
LOX IMVI melanoma
  GI50: 2.98 µM
  TGI: 9.21 µM
M14 melanoma
  GI50: 2.12 µM
  TGI: 4.75 µM
MALME-3M melanoma
  GI50: 1.92 µM
  TGI: 4.41 µM
MCF7 breast
  GI50: 2.55 µM
  TGI: 15.3 µM
MDA-MB-231 breast
  GI50: 2.26 µM
  TGI: 6.32 µM
MDA-MB-435
  GI50: 1.84 µM
  TGI: 4.84 µM
MOLT-4 leukemia
  GI50: 2.32 µM
  TGI: 7.91 µM
NCI-H226 lung
  GI50: 2.94 µM
  TGI: 11.1 µM
NCI-H23 lung
  GI50: 2.6 µM
